{
  "source": "patent US20130237485A1",
  "about": "“Methods and Agents for Enhancing Wound Healing” (UNIVERSITY OF SOUTHERN CALIFORNIA, priority 2010, published 2013)",
  "key": {"RDEB keratinocytes": {"system": "RDEB keratinocytes", "assay": "Immunoblot (anti-NC1 antibody) for full-length C7 in RDEB keratinocytes treated with aminoglycosides", "format": "cell-based, human", "conditions": "for read-through / full-length C7 production: 48 h, G418 8 μg/mL, gentamicin 200 μg/mL, paromomycin 200 μg/mL, amikacin 1 mg/mL, PTC 124 20 μg/mL, EB5K and DG16 keratinocytes, FIG. 1; for sustained C7 production: G418 8 μg/mL or gentamicin 200 μg/mL, lysed at 3, 5, or 8 days following treatment, FIG. 3; for dose dependence of full-length C7 production: varying concentrations, EB5K and DG16 lines, FIG. 2", "procedure": "RDEB keratinocytes were treated for 48 h with either G418 (8 μg/mL), gentamicin (200 μg/mL), paromomcyin (200 μg/mL), amikacin (1 mg/mL), or PTC 124 (20 μg/mL). Cells were subsequently lysed and subjected to immunoblot analysis with anti-NC1 antibody or anti-β-tubulin antibody (loading control).\nRDEB keratinocytes were treated with varying concentrations of G418 and Gentamicin. Cells were lysed and subjected to immunoblot analysis with an anti-NC1 or anti-β-tubulin antibody (loading control).\nEB5K and D016 keratinocytes were treated with G418 (8 μg/mL) or gentamicin (200 μg/mL). Cells were lysed at 3, 5, or 8 days following treatment and subjected to immunoblot analysis with an anti-NC1 or anti-β-tubulin antibody."}, "[1]": {"system": "DG16 and EB5K keratinocytes", "assay": "Immunofluorescence staining for C7 with polyclonal anti-NC1 antibody", "format": "cell-based, human", "conditions": "G418 8 μg/mL or gentamicin 200 μg/mL, FIG. 4", "text": "Normal human keratinocytes (IKC) were stained in parallel. […] In contrast, untreated parent keratinocytes entirely lacked C7expression."}, "[2]": {"system": "EB5K and DG16 keratinocytes", "assay": "Colloidal gold salt migration assay using collagen I as a matrix", "format": "cell-based", "conditions": "G418 8 μg/mL or gentamicin 200 μg/mL for 48 h; compared with normal human keratinocytes (IKC); FIG. 5", "procedure": "In FIG. 5A, keratinocytes were either untreated or treated with G418 (8 μg/mL) or gentamicin (200 μg/mL) for 48 h and then subjected to colloidal gold salt migration assay using collagen I as a matrix. Representative fields were photographed at 40× under dark field optics. In FIG. 5B, migration index expresses the percentage of the total field area consumed by the migration tracks. Error bars, SD of three different experiments."}, "[3]": {"system": "Human epithelial (293 cells) transfected with nonsense mutation constructs", "assay": "Immunoblot (anti-NC1 antibody) of 293 cells transfected with COL7A1 nonsense mutation constructs", "format": "cell-based", "conditions": "293 cells with mutant constructs; for PTC read-through and full-length C7 production: G418 8 μg/mL or gentamicin 200 μg/mL for 48 h, FIG. 7", "procedure": "For experimentation with cells containing different nonsense mutation in the COL7A1 gene, we used a C7 expression vector to introduce 30 nonsense mutations associated with RDEB via site-directed mutagenesis.\nHuman epithelial (293 cells) transfected with nonsense mutation constructs were treated with (FIG. 7A) G418 (8 μg/mL) and (FIG. 7B) gentamicin (200 μg/mL) for 48 h, lysed, and subjected to immunoblot analysis with an anti-NC1 antibody or anti-β-tubulin antibody (loading control).\nIn FIG. 8B, 293 cells transfected with the indicated mutant constructs were either untreated or treated with G418 (8 μg/mL) for 48 h, lysed and subjected to immunoblot analysis using an anti-NC1 antibody or anti-β-tubulin antibody (loading control)."}},
  "data": [
    {"compound": "NCC[C@H](O)C(=O)N[C@@H]1C[C@H](N)[C@@H](O[C@H]2O[C@H](CN)[C@@H](O)[C@H](O)[C@H]2O)[C@H](O)[C@H]1O[C@H]1O[C@H](CO)[C@@H](O)[C@H](N)[C@H]1O", "note": "[Amikacin, amikacin]", "values": [
      {"measurement": "read-through / full-length C7 production", "setting": "RDEB keratinocytes", "result": "did not cause read-through in either keratinocyte line"}
    ]},
    {"compound": "CN[C@@H]1[C@@H](O)[C@@H](O[C@@H]2[C@@H](O)[C@H](O[C@H]3O[C@H]([C@@H](C)O)[C@@H](O)[C@H](O)[C@H]3N)[C@@H](N)C[C@H]2N)OC[C@]1(C)O", "note": "[G418]", "values": [
      {"measurement": "read-through / full-length C7 production", "setting": "RDEB keratinocytes", "result": "induced full-length C7 production in both EB5K and DG16 keratinocytes"},
      {"measurement": "sustained C7 production", "setting": "RDEB keratinocytes", "result": "induced sustained C7 production"},
      {"measurement": "dose dependence of full-length C7 production", "setting": "RDEB keratinocytes", "result": "induced full-length C7 production in a dose-dependent manner in both EB5K and DG16 lines"},
      {"measurement": "C7 staining (immunofluorescence)", "setting": "[1]", "result": "demonstrated C7 staining"},
      {"measurement": "keratinocyte hypermotility (migration index)", "setting": "[2]", "result": "reversed their hypermotility phenotype to normal"},
      {"measurement": "levels of truncated and full-length C7 production compared to untreated cells", "setting": "[3]; G418 8 μg/mL for 48 h, FIG. 8B", "result": "significantly higher levels of truncated and full-length C7 production"},
      {"measurement": "PTC read-through and full-length C7 production", "setting": "[3]", "result": "induced PTC read-through and full-length C7 production"}
    ]},
    {"compound": "O=C(O)c1cccc(-c2noc(-c3ccccc3F)n2)c1", "note": "[PTC124, PTC 124]", "values": [
      {"measurement": "read-through / full-length C7 production", "setting": "RDEB keratinocytes", "result": "did not cause read-through in either keratinocyte line"}
    ]},
    {"compound": "NC[C@@H]1O[C@H](O[C@H]2[C@@H](O)[C@H](O[C@@H]3[C@@H](O)[C@H](N)C[C@H](N)[C@H]3O[C@H]3O[C@H](CO)[C@@H](O)[C@H](O)[C@H]3N)O[C@@H]2CO)[C@H](N)[C@@H](O)[C@@H]1O", "note": "[Paromomycin, paromomycin]", "values": [
      {"measurement": "read-through / full-length C7 production", "setting": "RDEB keratinocytes", "result": "induced read-through in DG16 cells only"}
    ]},
    {"compound": "gentamicin", "values": [
      {"measurement": "read-through / full-length C7 production", "setting": "RDEB keratinocytes", "result": "induced full-length C7 production in both EB5K and DG16 keratinocytes"},
      {"measurement": "sustained C7 production", "setting": "RDEB keratinocytes", "result": "induced sustained C7 production"},
      {"measurement": "dose dependence of full-length C7 production", "setting": "RDEB keratinocytes", "result": "induced full-length C7 production in a dose-dependent manner in both EB5K and DG16 lines"},
      {"measurement": "C7 staining (immunofluorescence)", "setting": "[1]", "result": "demonstrated C7 staining"},
      {"measurement": "keratinocyte hypermotility (migration index)", "setting": "[2]", "result": "reversed their hypermotility phenotype to normal"},
      {"measurement": "PTC read-through and full-length C7 production", "setting": "[3]", "result": "induced PTC read-through and full-length C7 production"}
    ]}
  ]
}
